These results are taken from ChEMBL document CHEMBL4765275, “Discovery of novel tertiary amide derivatives as NEDDylation pathway activators to inhibit the tumor progression in vitro and in vivo” (Eur J Med Chem, 2020).

Assay type in all cases: functional, cell-based
One assay deals with MGC-803. Nature of the assay: Antiproliferative activity against human MGC-803 cells measured after 48 hrs by MTT assay. The following applies: MGC-803, 48 h. (Tetrazolium dyes change colour on reduction, which living cells bring about.)
The next assay has as its system MCF7. Nature of the assay: Antiproliferative activity against human MCF7 cells measured after 48 hrs by MTT assay. As to conditions: MCF7, 48 h.
Another assay relates to PC-3. The assay is described as follows: Antiproliferative activity against human PC-3 cells measured after 48 hrs by MTT assay. As to conditions: PC-3, 48 h.

The structures appear in SMILES notation. Where only a bound is given, the exact number is not on record here.

One may read the IC50 as the midpoint of a concentration-inhibition curve.

With `COc1ccc(CN(C(=O)Cc2ccc(F)cc2)c2cc(OC)c(OC)c(OC)c2)cc1`, the figures for the IC50 in the assay on MGC-803, with MCF7 and in the assay on PC-3 were 1.81 µM, 2.52 µM and 2.38 µM, respectively.
For the compound `COc1ccc(CN(C(=O)Cc2cccc(OC)c2)c2cc(OC)c(OC)c(OC)c2)cc1`, the IC50 in the assay with MGC-803 came out at 1.06 µM; in the assay on MCF7, 1.33 µM; in the assay with PC-3, 3.04 µM.
For `COc1ccc(CN(C(=O)COc2ccccc2)c2cc(OC)c(OC)c(OC)c2)cc1` the same measures were 22.7 µM, 64.1 µM and 19.7 µM.
For `COc1ccc(CN(C(=O)COc2cccc(Cl)c2)c2cc(OC)c(OC)c(OC)c2)cc1` the same measures were 68.7 µM, 55.2 µM and 30.5 µM.
With `COc1cc(N(Cc2cccc(F)c2)C(=O)Cc2cccs2)cc(OC)c1OC`, the IC50 came out at 13.1 µM in the assay with MGC-803, 27.3 µM in the assay with MCF7 and 21.4 µM in the assay with PC-3.
`O=c1[nH]cc(F)c(=O)[nH]1` [FLUOROURACIL] yielded an IC50 in the assay with PC-3 of 17.3 µM.
For the compound `COc1ccc(CN(C(=O)CSc2nc3ccccc3o2)c2cc(OC)c(OC)c(OC)c2)cc1`, the IC50 with MCF7 stood at 6.68 µM.
In the case of `COc1ccc(CN(C(=O)CSc2nnnn2C)c2cc(OC)c(OC)c(OC)c2)cc1`, in the assay on MCF7, the IC50 was 14.4 µM. This IC50 lies about 2.2-fold higher than the previous one.
As for `COc1cc(N(Cc2ccc(Br)cc2)C(=O)Cc2cccs2)cc(OC)c1OC`, the IC50 in the assay on MGC-803 worked out at 5.32 µM; with MCF7 it was 6.43 µM; with PC-3, 7.68 µM.
`COc1ccc(CN(C(=O)CSc2nncs2)c2cc(OC)c(OC)c(OC)c2)cc1`: inhibition in the assay with MCF7 was half-maximal at 19.4 µM (IC50).
Turning to `COc1ccc(CN(C(=O)Cc2cccs2)c2ccc(OC)c(OC)c2)cc1`, the 50% inhibitory concentration (IC50) with MGC-803, with MCF7 and with PC-3 was over 80 µM throughout.
For the compound `COc1ccc(CN(C(=O)Cc2ccccc2)c2cc(OC)c(OC)c(OC)c2)cc1`, the IC50 in the assay on MGC-803 came to 6.82 µM; in the assay on MCF7, 2.68 µM; in the assay on PC-3, 0.85 µM.
With `COc1ccc(CN(C(=O)COc2cc(OC)c(OC)c(OC)c2)c2cc(OC)c(OC)c(OC)c2)cc1`, the IC50 in the assay on MGC-803 is 31.2 µM; with MCF7, 40.7 µM; with PC-3, over 80 µM.
For `COc1cc(N(Cc2ccc(F)cc2)C(=O)Cc2cccs2)cc(OC)c1OC` the same measures were 32.6 µM, 50.9 µM and 23.1 µM.
For `COc1ccc(CN(C(=O)Cc2cccs2)c2cc(OC)c(OC)c(OC)c2)cc1N` the same measures were 0.1 µM, 2.48 µM and 1.65 µM.
For `COc1ccc(CN(C(=O)Cc2cccs2)c2ccccc2)cc1` the same measures were over 80 µM, over 80 µM and over 80 µM.
Regarding `COc1ccc(CN(C(=O)Cc2cccs2)c2cc(Cl)c(Cl)cc2Cl)cc1`, the IC50 in the assay on MGC-803, in the assay on MCF7 and with PC-3 was over 80 µM in each case.
In the case of `COc1ccc(CC(=O)N(Cc2ccc(OC)cc2)c2cc(OC)c(OC)c(OC)c2)cc1`, the IC50 in the assay with MGC-803 was 4.37 µM; in the assay with MCF7, 0.18 µM; in the assay with PC-3, 1.49 µM.
For `COc1cc(N(Cc2cccc(C)c2)C(=O)Cc2cccs2)cc(OC)c1OC` the same measures were 19.7 µM, 42.6 µM and 26.9 µM.
For `COc1ccc(CN(C(=O)C(c2ccccc2)c2ccccc2)c2cc(OC)c(OC)c(OC)c2)cc1` the same measures were over 80 µM, over 80 µM and over 80 µM.
Take `COc1cc(N(Cc2cccc(Cl)c2)C(=O)Cc2cccs2)cc(OC)c1OC`: the IC50 in the assay on MGC-803 was 37 µM; in the assay on MCF7, 42.4 µM; with PC-3, 77.9 µM.
Turning to `COc1ccc(CN(C(=O)COc2ccc(OC)cc2)c2cc(OC)c(OC)c(OC)c2)cc1`, the IC50 in the assay on MGC-803 came out at 6.27 µM; in the assay with MCF7 it was 46.4 µM; in the assay with PC-3, 66.4 µM.
Take `COc1ccc(CN(C(=O)CSc2ccccn2)c2cc(OC)c(OC)c(OC)c2)cc1`: the half-inhibitory concentration (IC50) in the assay on MCF7 is 16.1 µM.
`COc1cc(N(Cc2ccc(C)cc2)C(=O)Cc2cccs2)cc(OC)c1OC`: the half-maximal inhibitory concentration (IC50) stood at 0.84 µM in the assay with MGC-803, 1.56 µM in the assay on MCF7 and 16.9 µM in the assay with PC-3.
For `COc1cc(N(Cc2ccc(Cl)cc2)C(=O)Cc2cccs2)cc(OC)c1OC` the same measures were 14.3 µM, 8.78 µM and 19.3 µM.
Consider `COc1cc(N(Cc2ccc(C(C)(C)C)cc2)C(=O)Cc2cccs2)cc(OC)c1OC`, for which the IC50 with MGC-803 came to 22.8 µM; with MCF7, 19.4 µM; in the assay with PC-3, 13.8 µM.
In the case of `COc1ccc(CN(C(=O)Cc2cccs2)c2ccc(OC)cc2)cc1`, the IC50 with MGC-803, with MCF7 and in the assay on PC-3 was over 80 µM throughout.
For the compound `COc1cc(N(Cc2ccccc2)C(=O)Cc2cccs2)cc(OC)c1OC`, the results for the IC50 in the assay with MGC-803, in the assay on MCF7 and with PC-3 were 22 µM, 48.8 µM and 33.9 µM, respectively.
For `COc1ccc(CN(C(=O)Cc2ccc(C)cc2C)c2cc(OC)c(OC)c(OC)c2)cc1` the same measures were 28.7 µM, 69.4 µM and 52.8 µM.
